In US20130338106A1, “COMPOUNDS INHIBITING LEUCINE-RICH REPEAT KINASE ENZYME ACTIVITY” (priority 2011, published 2013):

Columns and labels:
Format in all cases: biochemical
Details in all cases: tested at 10 uM, read-out: percent inhibition of the kinase activity
ROCK1 = target: T1, ROCK1 (Homo sapiens, UniProt Q13464); experiment: ProfilerPro Kinase Selectivity, ROCK1
T1 construct: purchased Caliper LifeSciences
Experimental: (§1) Kinome selectivity profiling was performed using two example compounds according to the manufacturer's instructions using Caliper LifeSciences' ProfilerPro Kinase Selectivity Assay Kits. Compounds prepared in Examples 1 and 7 were tested at 10 uM and data were recorded using the Caliper LabChip® EZ Reader™. Each compounds' percent inhibition of the kinase activity measured in this manner is reported in the following lists.

MAPKAPK5 = target: T2, MAPKAPK5 (Homo sapiens, UniProt Q8IW41); experiment: ProfilerPro Kinase Selectivity, MAPKAPK5
T2 construct: purchased Caliper LifeSciences
Experimental: as §1

FLT4 = target: T3, FLT4 (Homo sapiens, UniProt P35916); experiment: ProfilerPro Kinase Selectivity, FLT4
T3 construct: purchased Caliper LifeSciences
T3 sequence (P35916 25-1363, species assumed): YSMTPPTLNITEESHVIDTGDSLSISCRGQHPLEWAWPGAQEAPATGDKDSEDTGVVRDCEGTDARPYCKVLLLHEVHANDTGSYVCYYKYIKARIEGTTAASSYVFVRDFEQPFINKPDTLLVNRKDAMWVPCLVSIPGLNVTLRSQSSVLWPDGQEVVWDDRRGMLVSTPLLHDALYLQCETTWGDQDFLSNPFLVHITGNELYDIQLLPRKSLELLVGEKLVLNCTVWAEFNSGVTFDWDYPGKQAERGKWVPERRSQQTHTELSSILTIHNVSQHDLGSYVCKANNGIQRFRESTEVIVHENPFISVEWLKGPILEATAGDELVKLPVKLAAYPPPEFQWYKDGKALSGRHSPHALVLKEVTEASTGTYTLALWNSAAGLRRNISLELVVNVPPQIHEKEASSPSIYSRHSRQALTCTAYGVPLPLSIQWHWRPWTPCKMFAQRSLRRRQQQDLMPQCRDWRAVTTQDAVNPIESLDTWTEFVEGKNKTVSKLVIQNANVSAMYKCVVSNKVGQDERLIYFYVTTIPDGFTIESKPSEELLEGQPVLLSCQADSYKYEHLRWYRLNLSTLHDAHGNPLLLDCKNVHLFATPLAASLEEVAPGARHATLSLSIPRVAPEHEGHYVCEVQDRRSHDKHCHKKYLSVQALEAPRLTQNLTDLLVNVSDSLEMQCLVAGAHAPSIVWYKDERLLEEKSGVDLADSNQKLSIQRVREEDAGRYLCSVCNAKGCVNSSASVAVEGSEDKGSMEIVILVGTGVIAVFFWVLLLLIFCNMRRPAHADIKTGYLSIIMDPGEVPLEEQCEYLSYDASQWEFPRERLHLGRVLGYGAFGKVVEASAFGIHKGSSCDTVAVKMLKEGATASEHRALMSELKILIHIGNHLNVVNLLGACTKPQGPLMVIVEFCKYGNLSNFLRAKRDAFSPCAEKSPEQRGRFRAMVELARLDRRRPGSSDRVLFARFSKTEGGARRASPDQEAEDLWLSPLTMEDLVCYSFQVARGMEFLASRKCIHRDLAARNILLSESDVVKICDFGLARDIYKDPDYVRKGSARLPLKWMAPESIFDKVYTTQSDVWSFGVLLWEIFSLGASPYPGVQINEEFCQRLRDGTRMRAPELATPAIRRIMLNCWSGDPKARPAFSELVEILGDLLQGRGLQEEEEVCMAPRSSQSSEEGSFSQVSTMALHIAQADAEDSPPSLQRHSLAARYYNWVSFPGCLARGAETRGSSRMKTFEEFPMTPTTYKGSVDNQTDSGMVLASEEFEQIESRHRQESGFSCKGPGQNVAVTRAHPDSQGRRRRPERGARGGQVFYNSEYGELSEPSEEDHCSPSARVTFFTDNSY
Experimental: as §1

CSNK1A1 = target: T4, CSNK1A1 (Homo sapiens, UniProt P48729); experiment: ProfilerPro Kinase Selectivity, CSNK1A1
T4 construct: purchased Caliper LifeSciences
Experimental: as §1

P38B2 = target: T5, P38B2 (Homo sapiens, UniProt Q15759); experiment: ProfilerPro Kinase Selectivity, P38B2
T5 construct: purchased Caliper LifeSciences
Experimental: as §1

EPHA8 = target: T6, EPHA8 (Homo sapiens, UniProt P29322); experiment: ProfilerPro Kinase Selectivity, EPHA8
T6 construct: purchased Caliper LifeSciences
Experimental: as §1

PKCI = target: T7, PKCI (Homo sapiens, UniProt P41743); experiment: ProfilerPro Kinase Selectivity, PKCI
T7 construct: purchased Caliper LifeSciences
Experimental: as §1

GCK = target: T8, GCK (Homo sapiens, UniProt Q12851); experiment: ProfilerPro Kinase Selectivity, GCK
T8 construct: purchased Caliper LifeSciences
Experimental: as §1

RSK4 = target: T9, RSK4 (Homo sapiens, UniProt Q9UK32); experiment: ProfilerPro Kinase Selectivity, RSK4
T9 construct: purchased Caliper LifeSciences
T9 sequence (Q9UK32 whole entry, species assumed): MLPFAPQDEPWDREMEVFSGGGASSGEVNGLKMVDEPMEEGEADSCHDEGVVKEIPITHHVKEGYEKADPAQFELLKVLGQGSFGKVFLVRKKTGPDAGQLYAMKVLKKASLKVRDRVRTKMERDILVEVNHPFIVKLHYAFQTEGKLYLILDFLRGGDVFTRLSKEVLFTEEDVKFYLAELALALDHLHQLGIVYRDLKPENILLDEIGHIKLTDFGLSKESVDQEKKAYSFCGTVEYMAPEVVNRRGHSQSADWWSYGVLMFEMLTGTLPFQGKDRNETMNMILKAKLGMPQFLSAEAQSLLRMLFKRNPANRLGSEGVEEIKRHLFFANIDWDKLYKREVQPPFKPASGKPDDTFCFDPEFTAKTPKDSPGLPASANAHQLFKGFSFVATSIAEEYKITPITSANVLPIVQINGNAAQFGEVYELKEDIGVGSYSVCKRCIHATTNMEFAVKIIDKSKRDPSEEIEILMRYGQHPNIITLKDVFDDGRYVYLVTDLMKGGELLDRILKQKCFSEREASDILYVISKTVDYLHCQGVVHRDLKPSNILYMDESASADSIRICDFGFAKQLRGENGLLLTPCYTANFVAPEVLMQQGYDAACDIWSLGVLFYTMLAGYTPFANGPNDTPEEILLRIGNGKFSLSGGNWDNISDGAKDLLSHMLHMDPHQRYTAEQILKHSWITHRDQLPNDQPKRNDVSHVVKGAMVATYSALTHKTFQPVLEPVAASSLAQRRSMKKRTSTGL
Experimental: as §1

AMPKA1 = target: T10, AMPKA1 (Homo sapiens, UniProt Q13131); experiment: ProfilerPro Kinase Selectivity, AMPKA1
T10 construct: purchased Caliper LifeSciences
T10 sequence (Q13131 whole entry): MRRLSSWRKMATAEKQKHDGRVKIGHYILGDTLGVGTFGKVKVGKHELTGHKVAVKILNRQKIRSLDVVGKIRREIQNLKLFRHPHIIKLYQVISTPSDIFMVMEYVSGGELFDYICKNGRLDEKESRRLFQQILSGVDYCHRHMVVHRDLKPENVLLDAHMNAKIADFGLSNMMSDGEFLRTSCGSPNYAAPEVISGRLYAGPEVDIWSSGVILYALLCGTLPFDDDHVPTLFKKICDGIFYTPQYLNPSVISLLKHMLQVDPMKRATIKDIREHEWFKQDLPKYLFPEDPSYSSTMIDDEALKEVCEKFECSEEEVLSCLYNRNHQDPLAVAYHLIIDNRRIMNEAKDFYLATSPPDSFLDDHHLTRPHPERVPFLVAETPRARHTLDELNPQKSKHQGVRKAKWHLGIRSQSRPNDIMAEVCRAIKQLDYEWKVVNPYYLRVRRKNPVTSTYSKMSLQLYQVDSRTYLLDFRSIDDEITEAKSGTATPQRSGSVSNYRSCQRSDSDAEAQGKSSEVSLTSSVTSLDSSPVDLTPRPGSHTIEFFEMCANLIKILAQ
T10 sequence (Q9Y478 whole entry partner): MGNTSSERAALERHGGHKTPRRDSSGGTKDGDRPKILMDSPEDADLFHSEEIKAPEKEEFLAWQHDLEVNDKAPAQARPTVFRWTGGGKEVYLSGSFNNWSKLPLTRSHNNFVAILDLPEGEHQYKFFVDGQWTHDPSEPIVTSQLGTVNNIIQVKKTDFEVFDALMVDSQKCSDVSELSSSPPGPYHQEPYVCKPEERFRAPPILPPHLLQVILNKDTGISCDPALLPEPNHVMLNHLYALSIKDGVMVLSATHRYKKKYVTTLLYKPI
T10 sequence (P54619 whole entry partner): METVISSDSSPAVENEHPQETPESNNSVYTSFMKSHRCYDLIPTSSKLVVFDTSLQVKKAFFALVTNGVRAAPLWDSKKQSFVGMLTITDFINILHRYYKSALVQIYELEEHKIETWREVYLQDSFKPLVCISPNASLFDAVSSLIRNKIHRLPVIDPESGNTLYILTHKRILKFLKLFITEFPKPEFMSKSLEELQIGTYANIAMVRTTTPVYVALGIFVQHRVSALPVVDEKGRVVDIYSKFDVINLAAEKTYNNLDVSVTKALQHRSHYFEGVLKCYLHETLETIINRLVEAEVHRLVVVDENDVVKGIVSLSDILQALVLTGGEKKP
Experimental: as §1

MINK = target: T11, MINK (Homo sapiens, UniProt Q8N4C8); experiment: ProfilerPro Kinase Selectivity, MINK
T11 construct: purchased Caliper LifeSciences
Experimental: as §1

PRKCD = target: T12, PRKCD (Homo sapiens, UniProt Q05655); experiment: ProfilerPro Kinase Selectivity, PRKCD
T12 construct: purchased Caliper LifeSciences
Experimental: as §1

KIT T670I = target: T13, KIT T670I (Homo sapiens, UniProt P10721, T670I); experiment: ProfilerPro Kinase Selectivity, KIT T670I
T13 construct: purchased Caliper LifeSciences
Experimental: as §1

P38D = target: T14, P38D (Homo sapiens, UniProt O15264); experiment: ProfilerPro Kinase Selectivity, P38D
T14 construct: purchased Caliper LifeSciences
Experimental: as §1

CHK2 = target: T15, CHK2 (Homo sapiens, UniProt O96017); experiment: ProfilerPro Kinase Selectivity, CHK2
T15 construct: purchased Caliper LifeSciences
T15 sequence (O96017 whole entry, species assumed): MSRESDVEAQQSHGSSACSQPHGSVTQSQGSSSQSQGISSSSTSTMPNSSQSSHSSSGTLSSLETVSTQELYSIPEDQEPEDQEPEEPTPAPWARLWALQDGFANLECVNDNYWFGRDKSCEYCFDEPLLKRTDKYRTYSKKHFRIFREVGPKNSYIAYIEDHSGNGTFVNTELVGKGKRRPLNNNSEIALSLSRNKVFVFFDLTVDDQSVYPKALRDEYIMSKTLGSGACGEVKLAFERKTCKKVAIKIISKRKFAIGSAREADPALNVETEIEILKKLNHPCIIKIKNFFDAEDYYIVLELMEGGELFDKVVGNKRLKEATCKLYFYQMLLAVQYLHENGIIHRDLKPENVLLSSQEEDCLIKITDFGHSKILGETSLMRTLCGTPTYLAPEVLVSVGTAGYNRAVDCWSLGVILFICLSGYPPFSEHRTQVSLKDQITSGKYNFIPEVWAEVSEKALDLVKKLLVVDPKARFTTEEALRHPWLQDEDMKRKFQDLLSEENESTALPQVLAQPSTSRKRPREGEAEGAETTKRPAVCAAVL
Experimental: as §1

EPHA4 = target: T16, EPHA4 (Homo sapiens, UniProt P54764); experiment: ProfilerPro Kinase Selectivity, EPHA4
T16 construct: purchased Caliper LifeSciences
Experimental: as §1

MER = target: T17, MER (Homo sapiens, UniProt Q12866); experiment: ProfilerPro Kinase Selectivity, MER
T17 construct: purchased Caliper LifeSciences
Experimental: as §1

DYRK3 = target: T18, DYRK3 (Homo sapiens, UniProt O43781); experiment: ProfilerPro Kinase Selectivity, DYRK3
T18 construct: purchased Caliper LifeSciences
Experimental: as §1

ERK2 = target: T19, ERK2 (Homo sapiens, UniProt P28482); experiment: ProfilerPro Kinase Selectivity, ERK2
T19 construct: purchased Caliper LifeSciences
Experimental: as §1

PAK2 = target: T20, PAK2 (Homo sapiens, UniProt Q13177); experiment: ProfilerPro Kinase Selectivity, PAK2
T20 construct: purchased Caliper LifeSciences
Experimental: as §1

RSK1 = target: T21, RSK1 (Homo sapiens, UniProt Q15418); experiment: ProfilerPro Kinase Selectivity, RSK1
T21 construct: purchased Caliper LifeSciences
Experimental: as §1

DDR2 = target: T22, DDR2 (Homo sapiens, UniProt Q16832); experiment: ProfilerPro Kinase Selectivity, DDR2
T22 construct: purchased Caliper LifeSciences
Experimental: as §1

EPHA5 = target: T23, EPHA5 (Homo sapiens, UniProt P54756); experiment: ProfilerPro Kinase Selectivity, EPHA5
T23 construct: purchased Caliper LifeSciences
Experimental: as §1

FYN = target: T24, FYN (Homo sapiens, UniProt P06241); experiment: ProfilerPro Kinase Selectivity, FYN
T24 construct: purchased Caliper LifeSciences
Experimental: as §1

EGFR T790M = target: T25, EGFR T790M (Homo sapiens, UniProt P00533, T790M); experiment: ProfilerPro Kinase Selectivity, EGFR T790M
T25 construct: purchased Caliper LifeSciences
T25 sequence (P00533 25-1210 T790M): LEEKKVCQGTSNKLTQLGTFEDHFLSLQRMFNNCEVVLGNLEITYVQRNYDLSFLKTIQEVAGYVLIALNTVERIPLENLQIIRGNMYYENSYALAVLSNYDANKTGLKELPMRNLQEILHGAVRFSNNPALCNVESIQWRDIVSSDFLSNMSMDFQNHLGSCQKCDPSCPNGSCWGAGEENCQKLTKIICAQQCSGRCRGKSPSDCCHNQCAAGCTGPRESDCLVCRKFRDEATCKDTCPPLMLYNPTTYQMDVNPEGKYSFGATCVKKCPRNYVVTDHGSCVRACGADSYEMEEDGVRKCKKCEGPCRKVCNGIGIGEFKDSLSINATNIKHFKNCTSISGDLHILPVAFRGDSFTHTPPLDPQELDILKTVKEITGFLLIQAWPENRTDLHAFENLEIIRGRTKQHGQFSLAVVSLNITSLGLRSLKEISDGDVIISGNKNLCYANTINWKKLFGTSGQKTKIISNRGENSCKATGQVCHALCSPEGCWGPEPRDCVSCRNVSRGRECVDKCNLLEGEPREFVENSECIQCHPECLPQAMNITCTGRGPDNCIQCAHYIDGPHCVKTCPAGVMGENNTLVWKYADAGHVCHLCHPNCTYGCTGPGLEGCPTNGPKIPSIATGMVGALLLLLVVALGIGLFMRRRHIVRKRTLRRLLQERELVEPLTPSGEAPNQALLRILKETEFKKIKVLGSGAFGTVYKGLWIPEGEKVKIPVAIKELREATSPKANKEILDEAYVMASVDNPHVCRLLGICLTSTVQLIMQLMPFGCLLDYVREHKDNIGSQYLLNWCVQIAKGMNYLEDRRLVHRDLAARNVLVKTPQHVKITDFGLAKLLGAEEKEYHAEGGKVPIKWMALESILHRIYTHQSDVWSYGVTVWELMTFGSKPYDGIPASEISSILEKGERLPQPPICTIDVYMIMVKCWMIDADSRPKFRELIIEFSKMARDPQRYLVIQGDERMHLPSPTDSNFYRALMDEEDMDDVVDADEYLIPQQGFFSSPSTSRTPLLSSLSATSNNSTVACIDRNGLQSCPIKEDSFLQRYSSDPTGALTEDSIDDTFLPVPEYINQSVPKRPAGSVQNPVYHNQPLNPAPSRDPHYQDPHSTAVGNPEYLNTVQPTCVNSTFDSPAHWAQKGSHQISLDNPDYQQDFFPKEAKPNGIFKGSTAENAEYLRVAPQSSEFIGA
Experimental: as §1

TSSK1 = target: T26, TSSK1 (Homo sapiens, UniProt Q9BXA7); experiment: ProfilerPro Kinase Selectivity, TSSK1
T26 construct: purchased Caliper LifeSciences
Experimental: as §1

PASK = target: T27, PASK (Homo sapiens, UniProt Q96RG2); experiment: ProfilerPro Kinase Selectivity, PASK
T27 construct: purchased Caliper LifeSciences
Experimental: as §1

HGK = target: T28, HGK (Homo sapiens, UniProt O95819); experiment: ProfilerPro Kinase Selectivity, HGK
T28 construct: purchased Caliper LifeSciences
Experimental: as §1

P38A = target: T29, P38A (Homo sapiens, UniProt Q16539); experiment: ProfilerPro Kinase Selectivity, P38A
T29 construct: purchased Caliper LifeSciences
Experimental: as §1

PHKG2 = target: T30, PHKG2 (Homo sapiens, UniProt P15735); experiment: ProfilerPro Kinase Selectivity, PHKG2
T30 construct: purchased Caliper LifeSciences
Experimental: as §1

PAK5 = target: T31, PAK5 (Homo sapiens, UniProt Q9P286); experiment: ProfilerPro Kinase Selectivity, PAK5
T31 construct: purchased Caliper LifeSciences
Experimental: as §1

CK1E = target: T32, CK1E (Homo sapiens, UniProt P49674); experiment: ProfilerPro Kinase Selectivity, CK1E
T32 construct: purchased Caliper LifeSciences
Experimental: as §1

IGF1R = target: T33, IGF1R (Homo sapiens, UniProt P08069); experiment: ProfilerPro Kinase Selectivity, IGF1R
T33 construct: purchased Caliper LifeSciences
Experimental: as §1

YES = target: T34, YES (Homo sapiens, UniProt P07947); experiment: ProfilerPro Kinase Selectivity, YES
T34 construct: purchased Caliper LifeSciences
Experimental: as §1

FES = target: T35, FES (Homo sapiens, UniProt P07332); experiment: ProfilerPro Kinase Selectivity, FES
T35 construct: purchased Caliper LifeSciences
Experimental: as §1

MARK1 = target: T36, MARK1 (Homo sapiens, UniProt Q9P0L2); experiment: ProfilerPro Kinase Selectivity, MARK1
T36 construct: purchased Caliper LifeSciences
Experimental: as §1

AKT2 = target: T37, AKT2 (Homo sapiens, UniProt P31751); experiment: ProfilerPro Kinase Selectivity, AKT2
T37 construct: purchased Caliper LifeSciences
Experimental: as §1

EPHB4 = target: T38, EPHB4 (Homo sapiens, UniProt P54760); experiment: ProfilerPro Kinase Selectivity, EPHB4
T38 construct: purchased Caliper LifeSciences
Experimental: as §1

For CSc1sc(-c2cc[nH]n2)c2c1C(=O)CCC2 [Example 1, 3-(Methylsulfanyl)-1-(1H-pyrazol-3-yl)-6,7-dihydro-2-benzothiophen-4(5H)-one], the inhibition at 10 µM (ROCK1) was -3.1%, the inhibition at 10 µM (MAPKAPK5) was 4.4% and the inhibition at 10 µM (FLT4) was 22.5%. For the same molecule, the inhibition at 10 µM (CSNK1A1) was 12.4%, the inhibition at 10 µM (P38B2) was -1.3% and the inhibition at 10 µM (EPHA8) was -0.2%. It also gave an inhibition at 10 µM (PKCI) of -14%, an inhibition at 10 µM (GCK) of 6.3% and an inhibition at 10 µM (RSK4) of 2.9%. The inhibition at 10 µM (AMPKA1) was 16.4%, the inhibition at 10 µM (MINK) was 24.8% and the inhibition at 10 µM (PRKCD) was -14.8%. The inhibition at 10 µM (KIT T670I) was 10.6%, the inhibition at 10 µM (P38D) was 4.2% and the inhibition at 10 µM (CHK2) was 48.7%. The inhibition at 10 µM (EPHA4) was -0.8%, the inhibition at 10 µM (MER) was 23.8% and the inhibition at 10 µM (DYRK3) was 11.7%. It also gave an inhibition at 10 µM (ERK2) of 4.5%, an inhibition at 10 µM (PAK2) of 4.6% and an inhibition at 10 µM (RSK1) of 9.5%. It also gave an inhibition at 10 µM (DDR2) of 0.8%, an inhibition at 10 µM (EPHA5) of -3.1% and an inhibition at 10 µM (FYN) of 1.2%. For the same molecule, the inhibition at 10 µM (EGFR T790M) was 1.8%, the inhibition at 10 µM (TSSK1) was 24% and the inhibition at 10 µM (PASK) was 2.6%. For the same molecule, the inhibition at 10 µM (HGK) was 13.8%, the inhibition at 10 µM (P38A) was -2.3% and the inhibition at 10 µM (PHKG2) was -5.5%. It also gave an inhibition at 10 µM (PAK5) of -0.6%, an inhibition at 10 µM (CK1E) of 10.9% and an inhibition at 10 µM (IGF1R) of 5.4%. For the same molecule, the inhibition at 10 µM (YES) was -4.4%, the inhibition at 10 µM (FES) was -2.8% and the inhibition at 10 µM (MARK1) was -2.9%. For the same molecule, the inhibition at 10 µM (AKT2) was -6.8% and the inhibition at 10 µM (EPHB4) was 0.6%.

Work on CC1(C)CC(=O)c2c(SC3CCCC3)sc(-c3cc[nH]n3)c2C1 [Example 7, 3-(Cyclopentylsulfanyl)-6,6-dimethyl-1-(1H-pyrazol-3-yl)-6,7-dihydro-2-benzothiophen-4(5H)-one] yielded an inhibition at 10 µM (ROCK1) of 5.1%, an inhibition at 10 µM (MAPKAPK5) of 1.9% and an inhibition at 10 µM (FLT4) of 2%. The inhibition at 10 µM (CSNK1A1) was 2%, the inhibition at 10 µM (P38B2) was -0.7% and the inhibition at 10 µM (EPHA8) was -3.8%. The inhibition at 10 µM (PKCI) was -8.9%, the inhibition at 10 µM (GCK) was 11.8% and the inhibition at 10 µM (RSK4) was -5.6%. The inhibition at 10 µM (AMPKA1) was -0.5%, the inhibition at 10 µM (MINK) was -1.5% and the inhibition at 10 µM (PRKCD) was 12.6%. It also gave an inhibition at 10 µM (KIT T670I) of 3%, an inhibition at 10 µM (P38D) of -0.3% and an inhibition at 10 µM (CHK2) of 3.7%. For the same molecule, the inhibition at 10 µM (EPHA4) was -3.5%, the inhibition at 10 µM (MER) was 8% and the inhibition at 10 µM (DYRK3) was -8.5%. It also gave an inhibition at 10 µM (ERK2) of -0.9%, an inhibition at 10 µM (PAK2) of 2.4% and an inhibition at 10 µM (RSK1) of 3.3%. It also gave an inhibition at 10 µM (DDR2) of -3.9%, an inhibition at 10 µM (EPHA5) of 1.5% and an inhibition at 10 µM (FYN) of 2.5%. It also gave an inhibition at 10 µM (EGFR T790M) of -1.9%, an inhibition at 10 µM (TSSK1) of 8.3% and an inhibition at 10 µM (PASK) of -10.8%. For the same molecule, the inhibition at 10 µM (HGK) was 3.9%, the inhibition at 10 µM (P38A) was 0.6% and the inhibition at 10 µM (PHKG2) was -2%. For the same molecule, the inhibition at 10 µM (PAK5) was -4.4%, the inhibition at 10 µM (CK1E) was 5.1% and the inhibition at 10 µM (IGF1R) was -3.7%. For the same molecule, the inhibition at 10 µM (YES) was -11.1%, the inhibition at 10 µM (FES) was -3.1% and the inhibition at 10 µM (MARK1) was -0.6%. It also gave an inhibition at 10 µM (AKT2) of -6.8% and an inhibition at 10 µM (EPHB4) of 0.1%.
